Measurements taken from patent US4933347A, “Diamidines and bis(imidazolines) for the treatment of and prophylaxis against pneumocystis carinii pneumonia” (University of North Carolina at Chapel Hill, priority 1988, dated 1990).

Columns and labels:
[1] = Toxicity of amidines in rats (standard laboratory procedure); assay type: in vivo
Experimental: Compounds having the structure represented by Formula I were synthesized in accordance with the appropriate procedures discussed previously. The reaction schemes shown in Charts I-III specifically identify the methodology used to synthesize the compounds of the respective examples. The compounds which were synthesized are shown in Table IA and the elemental analysis and melting points of the compounds are shown in Table IB. Most of the compounds were tested for toxicity in rats using standard laboratory procedure and the results of that toxicity testing are shown in Table XII. The compounds of Examples 31, 32, and 34 were not synthesized but may be synthesized in the general manner discussed previously.

Pneumocystis carinii = assay: Treatment of Pneumocystis carinii pneumonia in Sprague-Dawley rats (extent of disease by histologic score); assay type: in vivo, male Sprague-Dawley rats; settings: for Extent of Disease by Histologic Score: number of animals with score 0.5 / Extent of Disease by Histologic Score: number of animals with score 1 / Extent of Disease by Histologic Score: number of animals with score 2 / Extent of Disease by Histologic Score: number of animals with score 3 / Extent of Disease by Histologic Score: number of animals with score 4: 14 days; for Extent of Disease by Histologic Score: number of animals with score 0.5 / Extent of disease by histologic score (combined): number of animals in scoring group 0.5: 0.5 = <10 cysts found per 2 sections; for Extent of Disease by Histologic Score: number of animals with score 1 / Extent of disease by histologic score (combined): number of animals in scoring group 1: 1 = scattered cysts, <5% of lung involved; for Extent of Disease by Histologic Score: number of animals with score 2 / Extent of disease by histologic score (combined): number of animals in scoring group 2: 2 = scattered cysts; for Extent of Disease by Histologic Score: number of animals with score 2: 5-10% lung involved or small foci of infection; for Extent of Disease by Histologic Score: number of animals with score 3 / Extent of disease by histologic score (combined): number of animals in scoring group 3: 3 = scattered cysts; for Extent of Disease by Histologic Score: number of animals with score 3: 10-50% of lung involved with some intense areas of infection; for Extent of Disease by Histologic Score: number of animals with score 4: 4 = >50% of lung involved with many intense areas of focal infection; for Extent of disease by histologic score (combined): number of animals in scoring group 0.5 / Extent of disease by histologic score (combined): number of animals in scoring group 1 / Extent of disease by histologic score (combined): number of animals in scoring group 2 / Extent of disease by histologic score (combined): number of animals in scoring group 3 / Extent of disease by histologic score (combined): number of animals in scoring group 4: Table XII composite; for Extent of disease by histologic score (combined): number of animals in scoring group 2: 5-10% of lung involved; for Extent of disease by histologic score (combined): number of animals in scoring group 3: 10-50% of lung involved; for Extent of disease by histologic score (combined): number of animals in scoring group 4: 4 = >50% of lung involved; for Efficacy in treating PCP compared with related compounds of the series: effect of chain length or substituent
Experimental: Induction and Treatment Of Pneumocystis Carinii in Sprague-Dawley Rats
Male Sprague-Dawley rats, barrier raised, non-certified virus free, weighing 150-200g were obtained from Hilltop Laboratories and housed individually. Animals were begun on a low (8%) protein diet (ICN Biomedicals, Cincinnati, OH) and drinking water containing tetracycline (0.5 mg/ml) and dexamethasone (1.0 μg/ml) immediately upon arrival. This treatment was given for the next 8 weeks, monitoring fluid intake daily and weighing animals weekly. Dilutions of the drinking solution were made when animals consumed too much fluid so as to prevent cortisone poisoning. At the beginning of the sixth week, animals were divided into groups of 8 animals each and the test compounds were administered daily by i.v. injection at a dose of 10 mg/kg, unless otherwise noted, for the next 14 days.
Animals were sacrificed at the end of the eighth week by chloroform inhalation and the left lung was removed aseptically and placed in sterile Hank's balanced salts solution without calcium or magnesium (HBSS-) for the ground tissue procedure. The right lung was inflated in situ with 10% […] and removed for histologic examination GMS staining. […]

[2] = 10 mg/kg unless otherwise noted

SMILES | Extent of Disease by Histologic Score: number of animals with score 0.5 (Pneumocystis carinii; 5 mg/kg i.v. daily) | Extent of Disease by Histologic Score: number of animals with score 1 (Pneumocystis carinii; 5 mg/kg i.v. daily) | Extent of Disease by Histologic Score: number of animals with score 2 (Pneumocystis carinii; 5 mg/kg i.v. daily) | Extent of Disease by Histologic Score: number of animals with score 3 (Pneumocystis carinii; 5 mg/kg i.v. daily) | Extent of Disease by Histologic Score: number of animals with score 4 (Pneumocystis carinii; 5 mg/kg i.v. daily) | Extent of disease by histologic score (combined): number of animals in scoring group 0.5 (Pneumocystis carinii; tested at 5 mg/kg) | Extent of disease by histologic score (combined): number of animals in scoring group 1 (Pneumocystis carinii; tested at 5 mg/kg) | Extent of disease by histologic score (combined): number of animals in scoring group 2 (Pneumocystis carinii; tested at 5 mg/kg) | Extent of disease by histologic score (combined): number of animals in scoring group 3 (Pneumocystis carinii; tested at 5 mg/kg) | Extent of disease by histologic score (combined): number of animals in scoring group 4 (Pneumocystis carinii; tested at 5 mg/kg) | Extent of Disease by Histologic Score: number of animals with score 0.5 (Pneumocystis carinii; 10 mg/kg i.v. daily) | Extent of Disease by Histologic Score: number of animals with score 1 (Pneumocystis carinii; 10 mg/kg i.v. daily) | Extent of Disease by Histologic Score: number of animals with score 2 (Pneumocystis carinii; 10 mg/kg i.v. daily) | Extent of Disease by Histologic Score: number of animals with score 3 (Pneumocystis carinii; 10 mg/kg i.v. daily) | Extent of Disease by Histologic Score: number of animals with score 4 (Pneumocystis carinii; 10 mg/kg i.v. daily) | Extent of disease by histologic score (combined): number of animals in scoring group 0.5 (Pneumocystis carinii; 10 mg/kg) | Extent of disease by histologic score (combined): number of animals in scoring group 1 (Pneumocystis carinii; 10 mg/kg) | Extent of disease by histologic score (combined): number of animals in scoring group 2 (Pneumocystis carinii; 10 mg/kg) | Extent of disease by histologic score (combined): number of animals in scoring group 3 (Pneumocystis carinii; 10 mg/kg) | Extent of disease by histologic score (combined): number of animals in scoring group 4 (Pneumocystis carinii; 10 mg/kg) | other results
COc1cc(C(=N)N)ccc1OCCCOc1ccc(C(=N)N)cc1OC [Example 6] | 7 animals | 1 animals | 0 animals | 0 animals | 0 animals | 7 animals | 1 animals | 0 animals | 0 animals | 0 animals | – | – | – | – | – | – | – | – | – | – | Toxicity of amidines: Effect ([1]; rat, in vivo, 5 mg/kg): None; Efficacy in treating PCP compared with control (Pneumocystis carinii; compound at 5 mg/kg): significantly better, at one half the dose, than the control
N=C(N)c1ccc(NCCCCNc2ccc(C(=N)N)cc2)cc1 [Example 8] | – | – | – | – | – | – | – | – | – | – | 3 animals | 1 animals | 0 animals | 0 animals | 0 animals | 3 animals | 1 animals | 0 animals | 0 animals | 0 animals | Deaths by day 7 ([1]; rat, in vivo): 3 deaths; Efficacy in treating PCP compared with pentamidine (Pneumocystis carinii; [2]): better than or equal to pentamidine
COc1cc(C(=N)N)ccc1OCCCCOc1ccc(C(=N)N)cc1OC [Example 11] | 3 animals | 4 animals | 1 animals | 0 animals | 0 animals | 3 animals | 4 animals | 1 animals | 0 animals | 0 animals | – | – | – | – | – | – | – | – | – | – | Toxicity of amidines: Effect ([1]; rat, in vivo, 5 mg/kg): None; Efficacy in treating PCP compared with control (Pneumocystis carinii; compound at 5 mg/kg): significantly better, at one half the dose, than the control
N=C(N)c1ccc(OCCCCCOc2ccc(C(=N)N)cc2[N+](=O)[O-])c([N+](=O)[O-])c1 [Example 13] | 3 animals | 2 animals | 3 animals | 0 animals | 0 animals | 0 animals | 2 animals | 4 animals | 2 animals | 0 animals | – | – | – | – | – | – | – | – | – | – | Toxicity of amidines: Effect ([1]; dose as in value, else not given in Table XIII (10 mg/kg test dose)): Acute toxicity, death at 10 mg/kg
c1cc(C2=NCCN2)ccc1OCCCCCOc1ccc(C2=NCCN2)cc1 [Example 30] | – | – | – | – | – | – | – | – | – | – | 5 animals | 3 animals | 0 animals | 0 animals | 0 animals | 5 animals | 3 animals | 0 animals | 0 animals | 0 animals | Efficacy in treating PCP compared with pentamidine (Pneumocystis carinii; [2]): comparable to or perhaps slightly better than pentamidine
N=C(N)c1ccc(NCCNc2ccc(C(=N)N)cc2N)c(N)c1 [Example 33] | – | – | – | – | – | – | – | – | – | – | 0 animals | 0 animals | 4 animals | 3 animals | 1 animals | 0 animals | 0 animals | 4 animals | 3 animals | 1 animals | Efficacy in treating PCP compared with control (Pneumocystis carinii; [2]): better than the control; Efficacy in treating PCP compared with pentamidine (Pneumocystis carinii; [2]): worse than pentamidine
N=C(N)c1ccc(NCCCNc2ccc(C(=N)N)cc2N)c(N)c1 [Example 36] | – | – | – | – | – | – | – | – | – | – | 1 animals | 4 animals | 2 animals | 0 animals | 0 animals | 1 animals | 4 animals | 2 animals | 0 animals | 0 animals | Efficacy in treating PCP compared with related compounds of the series (Pneumocystis carinii): better than the nitro substituted compounds
N=C(N)c1ccc(NCCCCNc2ccc(C(=N)N)cc2N)c(N)c1 [Example 37] | – | – | – | – | – | – | – | – | – | – | 0 animals | 4 animals | 3 animals | 1 animals | 0 animals | 0 animals | 4 animals | 3 animals | 1 animals | 0 animals | Efficacy in treating PCP compared with related compounds of the series (Pneumocystis carinii): better than the nitro substituted compounds
N=C(N)c1ccc(NCCCCCCNc2ccc(C(=N)N)cc2)cc1 [Example 39] | – | – | – | – | – | – | – | – | – | – | 2 animals | 1 animals | 0 animals | 0 animals | 0 animals | – | – | – | – | – | –
c1cc(C2=NCCN2)ccc1OCCCCOc1ccc(C2=NCCN2)cc1 [Example 40] | – | – | – | – | – | – | – | – | – | – | 1 animals | 2 animals | 3 animals | 1 animals | 0 animals | 1 animals | 2 animals | 3 animals | 1 animals | 0 animals | Efficacy in treating PCP compared with control (Pneumocystis carinii; [2]): significantly better than the control
